Measurements taken from patent US20150089682A1, “ALS Inhibitor Herbicide Tolerant B. Napus Mutants” (priority 2012, published 2015).

Experiments:
[1] = target: T1, Arabidopsis thaliana W574L-mutant ALS (Arabidopsis thaliana, UniProt P17597, E575Q/W574L); assay: biochemical; conditions: for IC50: read-out: pI50 W574L (converted); for Resistance Factor W574L: relative to WT, from measured pI50
T1 construct: vector-encoded N-terminal fusion of pET-32a(+) (Trx/His/S tag by own knowledge); made in house; host or cells: Escherichia coli AD494
Description: (§1) Bacteria were grown at 37° C. in LB-medium containing 100 mg/1 carbenicillin and 25 mg/1 canamycin, induced with 1 mM isopropyl-β-D-thiogalactopyranoside at an OD600 of 0.6, cultivated for 16 hours at 18° C. and harvested by centrifugation. Bacterial pellets were resusupended in 100 mM sodium phosphate buffer pH 7.0 containing 0.1 mM thiamine-pyrophosphate, 1 mM MgCl2, and 1 μM FAD at a concentration of 1 gram wet weight per 25 ml of buffer and disrupted by sonification. The crude protein extract obtained after centrifugation was used for ALS activity measurements.
(§2) Assays were initiated by adding enzyme and terminated after 75 min incubation at 30° C. by the addition to 40 μl 0.5 M H2SO4. […] Reaction velocities were tiffed to the Michalis-Menten equation with the XLFit curve fitting program.

[2] = target: T2, Arabidopsis thaliana wild-type ALS (Arabidopsis thaliana, UniProt P17597, E575Q); assay: biochemical; conditions: measured, crude extract of E. coli expressed enzyme; for IC50: read-out: pI50 WT (converted)
T2 construct: vector-encoded N-terminal fusion of pET-32a(+) (Trx/His/S tag by own knowledge); made in house; host or cells: Escherichia coli AD494
Description: as §1, §2

[3] = target: T3, Arabidopsis thaliana S653N-mutant ALS (Arabidopsis thaliana, UniProt P17597, E575Q/S653N); assay: biochemical; conditions: for IC50: read-out: pI50 S653N (converted); for Resistance Factor S653N: relative to WT, from measured pI50
T3 construct: vector-encoded N-terminal fusion of pET-32a(+) (Trx/His/S tag by own knowledge); made in house; host or cells: Escherichia coli AD494
Description: as §1, §2

[4] = target: T4, Arabidopsis thaliana P197S-mutant ALS (Arabidopsis thaliana, UniProt P17597, E575Q/P197S); assay: biochemical; conditions: for IC50: read-out: pI50 P197S (converted); for Resistance Factor P197S: relative to WT, from measured pI50
T4 construct: vector-encoded N-terminal fusion of pET-32a(+) (Trx/His/S tag by own knowledge); made in house; host or cells: Escherichia coli AD494
Description: as §1, §2

[5] = target: T5, mixture of P197S and W574L ALS enzymes (Arabidopsis thaliana, UniProt P17597); assay type: biochemical; conditions: for pI50 P197S & W574L: calculated for a mixture of equal activities of the two enzymes, pI50=3.0 used where measured <4; for Resistance Factor P197S & W574L: relative to WT, calculated
T5 construct: crude E. coli extract was used
Description: as §2
(§3) To characterize the response of a mixture of two different ALS enzymes to a given ALS inhibitor the following assumptions were made: • a inhibition is competitive and reversible • b. in the absence of inhibitor, equal activities of the ALS (mutant) enzymes 1 and 2 are present
(§4) Using experimentally determined pI50-values for various ALS-inhibiting herbicides, enzyme activities at different inhibitor concentrations were calculated (see Theory) for each ALS enzyme. Total ALS activity at any given inhibitor concentration is the sum of the activity of (mutant) enzyme 1 and (mutant) enzyme 2. If the experimentally determined pI50-value was <4, pI50=3.0 was used for the calculations. If the calculated pI50-value was 3.0, the pI50 was redefined as <4.

[6] = target: T6, mixture of S653N and W574L ALS enzymes (Arabidopsis thaliana, UniProt P17597); assay type: biochemical; conditions: for pI50 S653N & W574L: calculated for a mixture of equal activities of the two enzymes, pI50=3.0 used where measured <4; for Resistance Factor S653N & W574L: relative to WT, calculated
T6 construct: crude E. coli extract was used
Description: as §2, §3, §4

[7] = test system: spring oilseed rape homozygous for HETO108 and HETO121; assay: Herbicide tolerance in the field, visible phytotoxicity; assay type: in vivo, Brassica napus; conditions: HETO108-HETO121, field, 18 days after application, 0%=no phytotoxic effects, 100%=all plants killed
From the text: (§5) Seeds of spring oilseed rape homozygous for HETO108 and HETO121 were sown in a field according to typical practical agricultural methods. The registered spring oilseed rape variety ABILITY served as a comparison. All plants were cultivated up to BBCH stage 14 (four true leaves of the oilseed rape plants). Afterwards, the herbicides mentioned in table 2 have been applied to the oilseed rape plants by using specific spray equipment for small plot applications. The water amount used was 200 L/ha.

[8] = test system: spring oilseed rape variety ABILITY; assay: as above; assay type: in vivo, Brassica napus; conditions: ABILITY, field, 18 days after application, 0%=no phytotoxic effects, 100%=all plants killed
From the text: as §5

[9] = Kinetic parameters of enzymatic activity of AHAS mutants; assay type: biochemical, Arabidopsis thaliana; conditions: pyruvate varied 0-120 mM
Description: as §1, with “The coding sequences of the Arabidopsis thaliana wild-type and P197S-, W574L-, and S653N-mutant ALS genes were cloned into Novagen pET-32a(+) vectors and the vectors transformed into Escherichia coli AD494 according to the instructions of the manufacturer. Bacteria were” for “Bacteria were”
ALS assays were carried out in 96-well microtiter plates using a modification of the procedure described by Ray (1984), Plant Physiol 75:827-831. The reation mixture contained 20 mM potassium phosphate buffer pH 7.0, 20 mM sodium pyruvate, 0.45 mM thiamine-pyrophosphate, 0.45 mM MgCl2, 9 μM FAD, ALS enzyme and various concentrations of ALS inhibitors in a final volume of 90 μl. Assays were initiated by adding enzyme and terminated after 75 min incubation at 30° C. by the addition to 40 μl 0.5 M H2SO4. […] The pI50 values measured for the different mutant AHAS proteins and calculated for the mixtures of two different AHAS enzymes are shown in Table 3. […] Reaction velocities were tiffed to the Michalis-Menten equation with the XLFit curve fitting program.

[10] = measured, crude extract of E. coli expressed enzyme
[11] = Brassica napus, topical, 432 h, AI dose rate 60 gai/ha, read-out: % phytotox
[12] = Brassica napus, topical, 432 h, AI dose rate 40 gai/ha, read-out: % phytotox
[13] = Brassica napus, topical, 432 h, AI dose rate 30 gai/ha, read-out: % phytotox
[14] = Brassica napus, topical, 432 h, AI dose rate 10 gai/ha, read-out: % phytotox
[15] = Brassica napus, topical, 432 h, AI dose rate 12.5 gai/ha, read-out: % phytotox

Molecule: COc1cc(OC)nc(NC(=O)NS(=O)(=O)c2ncccc2C(=O)N(C)C)n1 [Nicosulfuron, nicosulfuron]
- IC50 [1, 10]: > 100 µM
- Resistance Factor W574L [1]: >794
- IC50 [2]: 0.126 µM
- IC50 [3, 10]: 2.51 µM
- Resistance Factor S653N [3]: 20
- IC50 [4, 10]: 1 µM
- Resistance Factor P197S [4]: 8
- pI50 P197S & W574L [5]: 4.5
- Resistance Factor P197S & W574L [5]: 251
- pI50 S653N & W574L [6]: 4.3
- Resistance Factor S653N & W574L [6]: 398
- pest or weed control at 60 g/ha [7, 11]: 55%
- pest or weed control at 60 g/ha [8, 11]: 100%

Molecule: COCc1cnc(C2=NC(C)(C(C)C)C(=O)N2)c(C(=O)O)c1 (centres unmarked) [Imazamox, imazamox]
- IC50 [1, 10]: > 100 µM
- Resistance Factor W574L [1]: >25
- IC50 [2]: 3.98 µM
- IC50 [3, 10]: > 100 µM
- Resistance Factor S653N [3]: >25
- IC50 [4, 10]: 5.01 µM
- Resistance Factor P197S [4]: 1
- pI50 P197S & W574L [5]: 4.1
- Resistance Factor P197S & W574L [5]: 20
- pI50 S653N & W574L [6]: <4
- Resistance Factor S653N & W574L [6]: >25
- pest or weed control at 40 g/ha [7, 12]: 19%
- pest or weed control at 40 g/ha [8, 12]: 99%

Molecule: COc1ncc(F)c2nc(S(=O)(=O)Nc3c(F)cccc3F)nn12 [Florasulam, florasulam]
- pI50 W574L [1, 10]: 4.6
- Resistance Factor W574L [1]: 1585
- pI50 WT [2]: 7.8
- pI50 S653N [3, 10]: 6.9
- Resistance Factor S653N [3]: 8
- pI50 P197S [4, 10]: 6.4
- Resistance Factor P197S [4]: 25
- pI50 P197S & W574L [5]: 5.5
- Resistance Factor P197S & W574L [5]: 200
- pI50 S653N & W574L [6]: 5.7
- Resistance Factor S653N & W574L [6]: 126
- % phytotox ([7]; AI dose rate 10 gai/ha): 70%
- % phytotox ([8]; AI dose rate 10 gai/ha): 100%

Molecule: COc1cc(OC)n2nc(S(=O)(=O)Nc3c(Cl)ccc(C)c3Cl)nc2n1 [Metosulam, metosulam]
- IC50 [1, 10]: 20 µM
- Resistance Factor W574L [1]: 7943
- IC50 [2]: 0.00251 µM
- IC50 [3, 10]: 0.00631 µM
- Resistance Factor S653N [3]: 3
- IC50 [4, 10]: 1.58 µM
- Resistance Factor P197S [4]: 631
- pI50 P197S & W574L [5]: 5.2
- Resistance Factor P197S & W574L [5]: 2512
- pI50 S653N & W574L [6]: 6.4
- Resistance Factor S653N & W574L [6]: 158
- pest or weed control at 30 g/ha [7, 13]: 35%
- pest or weed control at 30 g/ha [8, 13]: 100%

Molecule: CCS(=O)(=O)c1nc2ccccn2c1S(=O)(=O)NC(=O)Nc1nc(OC)cc(OC)n1 [Sulfosulfuron, sulfosulfuron]
- IC50 [1, 10]: > 100 µM
- Resistance Factor W574L [1]: >3981
- IC50 [2]: 0.0251 µM
- IC50 [3, 10]: 0.126 µM
- Resistance Factor S653N [3]: 5
- IC50 [4, 10]: 39.8 µM
- Resistance Factor P197S [4]: 1585
- pI50 P197S & W574L [5]: 3.6
- Resistance Factor P197S & W574L [5]: 10000
- pI50 S653N & W574L [6]: 5.4
- Resistance Factor S653N & W574L [6]: 158
- pest or weed control at 10 g/ha [7, 14]: 3%
- pest or weed control at 10 g/ha [8, 14]: 100%

Molecule: CCS(=O)(=O)c1cccnc1S(=O)(=O)NC(=O)Nc1nc(OC)cc(OC)n1 [Rimsulfuron, rimsulfuron]
- IC50 [1, 10]: 10 µM
- Resistance Factor W574L [1]: 316
- IC50 [2]: 0.0316 µM
- IC50 [3, 10]: 0.02 µM
- Resistance Factor S653N [3]: 1
- IC50 [4, 10]: 0.398 µM
- Resistance Factor P197S [4]: 13
- pI50 P197S & W574L [5]: 5.7
- Resistance Factor P197S & W574L [5]: 63
- pI50 S653N & W574L [6]: 6.3
- Resistance Factor S653N & W574L [6]: 16
- pest or weed control at 12.5 g/ha [7, 15]: 68%
- pest or weed control at 12.5 g/ha [8, 15]: 100%

B1: Wild-type: Arabidopsis thaliana wild-type ALS expressed in Escherichia coli, crude protein extract (protein, UniProt P17597 56-670, looked up)
Acetolactate synthase, …: SSSPSSISAVLNTTTNVTTTPSPTKPTKPETFISRFAPDQPRKGADILVEALERQGVETVFAYPGGASMEIHQALTRSSSIRNVLPRHEQGGVFAAEGYARSSGKPGICIATSGPGATNLVSGLADALLDSVPLVAITGQVPRRMIGTDAFQETPIVEVTRSITKHNYLVMDVEDIPRIIEEAFFLATSGRPGPVLVDVPKDIQQQLAIPNWEQAMRLPGYMSRMPKPPEDSHLEQIVRLISESKKPVLYVGGGCLNSSDELGRFVELTGIPVASTLMGLGSYPCDDELSLHMLGMHGTVYANYAVEHSDLLLAFGVRFDDRVTGKLEAFASRAKIVHIDIDSAEIGKNKTPHVSVCGDVKLALQGMNKVLENRAEELKLDFGVWRNELNVQKQKFPLSFKTFGEAIPPQYAIKVLDELTDGKAIISTGVGQHQMWAAQFYNYKKPRQWLSSGGLGAMGFGLPAAIGASVANPDAIVVDIDGDGSFIMNVQELATIRVENLPVKVLLLNNQHLGMVMQWEDRFYKANRAHTFLGDPAQEDEIFPNMLLFAAACGIPAARVTKKADLREAIQTMLDTPGPYLLDVICPHQEHVLPMIPSGGTFNDVITEGDGRIKY
- Km [9]: 2100 ± 100 µM
- Vmax [9]: 42.7 ± 1.3 ΔE/min mg
